Patent US20060167110A1 (priority 1995, published 2006)

How the values were obtained:
[1] = system: rat embryonic mesencephalic cells; test: [3H]dopamine uptake, medium change (glutamate receptor dependent) model of cell death; details: 50 μM
Method: Preparations are then added to 10 ml Ecoscint (National Diagnostics) and counted in a scintillation spectrometer.
(§1) In these experiments, cells were plated and allowed to stabilize for several days.

[2] = target: T1, MAO-A (Cavia porcellus, UniProt H0UVA2); test: MAO-A inhibition in guinea pig hippocampal homogenates in vitro; assay type: biochemical; set-up: specific substrates of MAO-A (^14C-serotonin) in guinea pig hippocampal homogenates; from tissue; host or cells: guinea pig hippocampal homogenates
T1 sequence (H0UVA2 1-461): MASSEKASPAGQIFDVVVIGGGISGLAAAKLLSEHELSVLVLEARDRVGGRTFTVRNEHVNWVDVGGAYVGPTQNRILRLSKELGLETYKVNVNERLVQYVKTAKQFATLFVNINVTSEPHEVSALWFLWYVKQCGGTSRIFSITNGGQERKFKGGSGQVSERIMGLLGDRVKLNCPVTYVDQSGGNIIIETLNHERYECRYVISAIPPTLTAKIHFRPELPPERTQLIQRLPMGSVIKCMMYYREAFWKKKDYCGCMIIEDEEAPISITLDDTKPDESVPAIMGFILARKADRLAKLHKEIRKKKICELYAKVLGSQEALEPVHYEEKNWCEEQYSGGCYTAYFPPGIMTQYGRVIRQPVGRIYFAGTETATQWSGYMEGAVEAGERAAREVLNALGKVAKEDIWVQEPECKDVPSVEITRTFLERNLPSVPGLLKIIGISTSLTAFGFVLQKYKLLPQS
Source text: Human platelet MAO is comprised exclusively of the type-B isoform of the enzyme. […] The present study also examined the two enantiomers of DMS for inhibitory activity with respect to the MAO-A and MAO-B in guinea pig hippocampal tissue. Guinea pig brain tissue is an excellent animal model for studying brain dopamine metabolism, the enzyme kinetics of the multiple forms of MAO and the inhibitory properties of novel agents that interact with these enzymes. The multiple forms of MAO in this animal species show similar kinetic properties to those found in human brain tissue. Finally, the test agents were administered to guinea pigs and the extent to which they might act as inhibitors of brain MAO in vivo was assessed.
In vitro: The test system utilized the in vitro conversion of specific substrates of MAO-A (^14C-serotonin) in guinea pig hippocampal homogenates or MAO-B (^14C-phenylethylamine) by human platelets and guinea pig hippocampal homogenates. […] A percent inhibition was calculated from these values.

[3] = system: rat embryonic mesencephalic cells; test: TH positive cell survival, medium change (glutamate receptor dependent) model of cell death
Method: as §1

[4] = target: T2, MAO-A (Rattus norvegicus, UniProt P21396); test: Inhibition of MAO-A in rat cortex mitochondrial-rich fractions; details: read-out: Percent Inhibition MAO-A
T2 sequence (P21396 1-526): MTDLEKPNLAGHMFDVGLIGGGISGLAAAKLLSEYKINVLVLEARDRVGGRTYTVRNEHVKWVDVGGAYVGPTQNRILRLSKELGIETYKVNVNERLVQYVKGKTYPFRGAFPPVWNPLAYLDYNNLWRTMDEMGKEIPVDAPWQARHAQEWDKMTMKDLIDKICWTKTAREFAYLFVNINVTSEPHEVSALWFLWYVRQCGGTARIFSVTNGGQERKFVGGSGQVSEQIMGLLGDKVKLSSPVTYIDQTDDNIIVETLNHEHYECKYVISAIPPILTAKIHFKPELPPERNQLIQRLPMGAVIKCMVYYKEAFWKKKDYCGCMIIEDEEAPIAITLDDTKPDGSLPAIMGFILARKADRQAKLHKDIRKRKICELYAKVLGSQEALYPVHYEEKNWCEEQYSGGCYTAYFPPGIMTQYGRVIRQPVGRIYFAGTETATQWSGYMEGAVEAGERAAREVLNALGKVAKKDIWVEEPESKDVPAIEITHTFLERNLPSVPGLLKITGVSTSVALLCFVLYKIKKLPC

[5] = system: cultured rat mesencephalic cells; test: TH immunochemistry after 100 μM NMDA exposure; details: 50 μM; single sample; listed as Deprenyl
Method: Rat mesencephalic cell cultures were exposed to 100 μM NMDA and incubated as described above in connection with FIG. 16.

[6] = target: T1, MAO-A; test: In vivo MAO-A inhibition in guinea pig cortex (hippocampus) after 5 s.c. treatments; details: sc, read-out: inhibition of MAO-A activity
Method: Hippocampal homogenates containing enzyme were prepared, and assays in vitro for MAO-A and MAO-B activity.

## C#CCN(C)[C@H](C)Cc1ccccc1 [Selegiline, (R)-N-α-dimethyl-N-2-propynylbenzeethanamine, reference compound]
[1]
  neuron protection by measurement of dopamine uptake (FIG. 15): neuron protection
[2]; Concentration 300 nM
  MAO-A % Reduction 0 ± SEM: 11.95 ± 2.4%
[2]; Concentration 1 μM
  MAO-A % Reduction 0 ± SEM: 22.1 ± 1.2%
[2]; Concentration 3 μM
  MAO-A % Reduction 0 ± SEM: 53.5 ± 2.7%
[2]; figure in parentheses, times less potent
  reduction in potency compared to selegiline, MAO-A: 1
[3]; 50 μM, Mean, listed as Deprenyl
  TH positive cells, cells/cm^2: 344.2 cells/cm^2
[3]; 0.5, 5.0 or 50 μM, 4 days of daily medium changes
  survival of dopaminergic neurons (TH staining and tritiated dopamine uptake, FIGS. 11 and 12): promotes the survival of dopaminergic neurons
[4]
  inhibition at 0.03 µM: 0%
[5]
  TH positive cells, cells/cm^2: 230 cells/cm^2
[6]
  inhibition at 1 mg/kg: 36.1%
